Test: Evaluation of stability in liver microsome
Details: mouse liver microsome 0.25 mg/mL, test compound 1 μM, 37° C., 30 minutes

Row | SMILES | Remaining (%)
1 | COCc1ccc(NC(=O)c2c(OCC(C)OC)n(C3(C)CC3)c3ncnc(N)c23)cc1 (centres unmarked) [Example 100, 4-amino-N-(4-(methoxymethyl)phenyl)-6-(2-methoxypropoxy)-7-(1-methylcyclopropyl)-7H-pyrrolo[2,3-d]pyrimidine-5-carboxamide] | 76%
2 | COCc1ccc(NC(=O)c2c(OCC3CCOC3)n(C3(C)CC3)c3ncnc(N)c23)cc1 (centres unmarked) [Example 101, 4-amino-N-(4-(methoxymethyl)phenyl)-7-(1-methylcyclopropyl)-6-((tetrahydrofuran-3-yl)methoxy)-7H-pyrrolo[2,3-d]pyrimidine-5-carboxamide] | 68%
3 | COCc1ccc(NC(=O)c2c(OCC3CCCCO3)n(C3(C)CC3)c3ncnc(N)c23)cc1 (centres unmarked) [Example 102, 4-amino-N-(4-(methoxymethyl)phenyl)-7-(1-methylcyclopropyl)-6-((tetrahydro-2H-pyran-2-yl)methoxy)-7H-pyrrolo[2,3-d]pyrimidine-5-carboxamide] | 60%
4 | COCc1ccc(NC(=O)c2c(C#CCC3(O)CCC3)n(C3(C)CC3)c3ncnc(N)c23)cc1 [Example 103, 4-amino-6-(3-(1-hydroxycyclobutyl)prop-1-yn-1-yl)-N-(4-(methoxymethyl)phenyl)-7-(1-methylcyclopropyl)-7H-pyrrolo[2,3-d]pyrimidine-5-carboxamide] | 60%
5 | COCc1ccc(NC(=O)c2c(C#CC(O)C3CC3)n(C3(C)CC3)c3ncnc(N)c23)cc1 (centres unmarked) [Example 104, 4-amino-6-(3-cyclopropyl-3-hydroxyprop-1-yn-1-yl)-N-(4-(methoxymethyl)phenyl)-7-(1-methylcyclopropyl)-7H-pyrrolo[2,3-d]pyrimidine-5-carboxamide] | 52%
6 | COCc1ccc(NC(=O)c2c(C#CCN3CCCCC3)n(C3(C)CC3)c3ncnc(N)c23)cc1 [Example 105, 4-amino-N-[4-(methoxymethyl)phenyl]-7-(1-methylcyclopropyl)-6-(3-(piperidin-1-yl)prop-1-yn-1-yl)-7H-pyrrolo[2,3-d]pyrimidine-5-carboxamide] | 52%
7 | COCc1ccc(NC(=O)c2c(/C=C/CO)n(C3(C)CC3)c3ncnc(N)c23)cc1 [Example 109, (E)-4-amino-6-(3-hydroxyprop-1-en-1-yl)-N-(4-(methoxymethyl)phenyl)-7-(1-methylcyclopropyl)-7H-pyrrolo[2,3-d]pyrimidine-5-carboxamide] | 68%
8 | COCc1ccc(NC(=O)c2c(C#Cc3ccccc3OC)n(C3(C)CC3)c3ncnc(N)c23)cc1 [Example 113, 4-amino-N-(4-(methoxymethyl)phenyl)-6-((2-methoxyphenyl)ethynyl)-7-(1-methylcyclopropyl)-7H-pyrrolo[2,3-d]pyrimidine-5-carboxamide] | 79%
9 | CCn1nccc1C#Cc1c(C(=O)Nc2ccc(COC)cc2)c2c(N)ncnc2n1C1(C)CC1 [Example 114, 4-amino-6-((1-ethyl-1H-pyrazol-5-yl)ethynyl)-N-(4-(methoxymethyl)phenyl)-7-(1-methylcyclopropyl)-7H-pyrrolo[2,3-d]pyrimidine-5-carboxamide] | 55%
10 | CCOc1c(C(=O)Nc2ccc(-c3ccco3)cc2)c2c(N)ncnc2n1C1(C)CC1 [Example 116, 4-amino-6-ethoxy-N-(4-(furan-2-yl)phenyl)-7-(1-methylcyclopropyl)-7H-pyrrolo[2,3-d]pyrimidine-5-carboxamide] | 55%
11 | CCn1cc(C#Cc2c(C(=O)Nc3ccc(COC)cc3)c3c(N)ncnc3n2C2(C)CC2)cn1 [Example 118, 4-amino-6-((1-ethyl-1H-pyrazol-4-yl)ethynyl)-N-(4-(methoxymethyl)phenyl)-7-(1-methylcyclopropyl)-7H-pyrrolo[2,3-d]pyrimidine-5-carboxamide] | 73%
12 | COCc1ccc(NC(=O)c2c(C#Cc3cccs3)n(C3(C)CC3)c3ncnc(N)c23)cc1 [Example 119, 4-amino-N-(4-(methoxymethyl)phenyl)-7-(1-methylcyclopropyl)-6-(thiophen-2-ylethynyl)-7H-pyrrolo[2,3-d]pyrimidine-5-carboxamide] | 70%
13 | COCc1ccc(NC(=O)c2c(C#Cc3ccc(Cl)nc3)n(C3(C)CC3)c3ncnc(N)c23)cc1 [Example 120, 4-amino-6-((6-chloropyridin-3-yl)ethynyl)-N-(4-(methoxymethyl)phenyl)-7-(1-methylcyclopropyl)-7H-pyrrolo[2,3-d]pyrimidine-5-carboxamide] | 72%

Now from value to compound:

Row | Remaining (%) | SMILES
14 | 74% | COCc1ccc(NC(=O)c2c(C#Cc3c[nH]c4ccccc34)n(C3(C)CC3)c3ncnc(N)c23)cc1 [Example 121, 6-((1H-indol-3-yl)ethynyl)-4-amino-N-(4-(methoxymethyl)phenyl)-7-(1-methylcyclopropyl)-7H-pyrrolo[2,3-d]pyrimidine-5-carboxamide]
15 | 62% | COCc1ccc(NC(=O)c2c(C#Cc3cccc(NCc4ccncc4)c3)n(C3(C)CC3)c3ncnc(N)c23)cc1 [Example 122, 4-amino-N-(4-(methoxymethyl)phenyl)-7-(1-methylcyclopropyl)-6-((3-((pyridin-4-ylmethyl)amino)phenyl)ethynyl)-7H-pyrrolo[2,3-d]pyrimidine-5-carboxamide]
16 | 74% | COCc1ccc(NC(=O)c2c(C#CCC3(O)COC3)n(C3(C)CC3)c3ncnc(N)c23)cc1 [Example 125, 4-amino-6-(3-(3-hydroxyoxetan-3-yl)prop-1-yn-1-yl)-N-(4-(methoxymethyl)phenyl)-7-(1-methylcyclopropyl)-7H-pyrrolo[2,3-d]pyrimidine-5-carboxamide]
17 | 69% | COCc1ccc(NC(=O)c2c(C#Cc3csc(C)n3)n(C3(C)CC3)c3ncnc(N)c23)cc1 [Example 126, 4-amino-N-(4-(methoxymethyl)phenyl)-7-(1-methylcyclopropyl)-6-((2-methylthiazol-4-yl)ethynyl)-7H-pyrrolo[2,3-d]pyrimidine-5-carboxamide]
18 | 70% | CCOc1c(C(=O)Nc2ccc(COC)cc2)c2c(N)ncnc2n1C1(C)CC1 [Example 127, 4-amino-6-ethoxy-N-(4-(methoxymethyl)phenyl)-7-(1-methylcyclopropyl)-7H-pyrrolo[2,3-d]pyrimidine-5-carboxamide]
19 | 82% | COCc1ccc(NC(=O)c2c(C#Cc3cnc4[nH]ccc4c3)n(C3(C)CC3)c3ncnc(N)c23)cc1 [Example 128, 6-((1H-pyrrolo[2,3-b]pyridin-5-yl)ethynyl)-4-amino-N-(4-(methoxymethyl)phenyl)-7-(1-methylcyclopropyl)-7H-pyrrolo[2,3-d]pyrimidine-5-carboxamide]
20 | 54% | COCc1ccc(NC(=O)c2c(C#Cc3ccn[nH]3)n(C3(C)CC3)c3ncnc(N)c23)cc1 [Example 129, 6-((1H-pyrazol-5-yl)ethynyl)-4-amino-N-(4-(methoxymethyl)phenyl)-7-(1-methylcyclopropyl)-7H-pyrrolo[2,3-d]pyrimidine-5-carboxamide]
21 | 84% | COCc1ccc(NC(=O)c2c(C#Cc3cccc(F)c3)n(C3(C)CC3)c3ncnc(N)c23)cc1 [Example 130, 4-amino-6-((3-fluorophenyl)ethynyl)-N-(4-(methoxymethyl)phenyl)-7-(1-methylcyclopropyl)-7H-pyrrolo[2,3-d]pyrimidine-5-carboxamide]
22 | 55% | COCc1ccc(NC(=O)c2c(C#CC3(O)CCCC3)n(C3(C)CC3)c3ncnc(N)c23)cc1 [Example 131, 4-amino-6-((1-hydroxycyclopentyl)ethynyl)-N-(4-(methoxymethyl)phenyl)-7-(1-methylcyclopropyl)-7H-pyrrolo[2,3-d]pyrimidine-5-carboxamide]
23 | 77% | COCc1ccc(NC(=O)c2c(C#CCN3CCN(C)CC3)n(C3(C)CC3)c3ncnc(N)c23)cc1 [Example 132, 4-amino-N-(4-(methoxymethyl)phenyl)-7-(1-methylcyclopropyl)-6-(3-(4-methylpiperazin-1-yl)prop-1-yn-1-yl)-7H-pyrrolo[2,3-d]pyrimidine-5-carboxamide]
24 | 79% | COCc1ccc(NC(=O)c2c(C#CC(C)(C)N)n(C3(C)CC3)c3ncnc(N)c23)cc1 [Example 134, 4-amino-6-(3-amino-3-methylbut-1-yn-1-yl)-N-(4-(methoxymethyl)phenyl)-7-(1-methylcyclopropyl)-7H-pyrrolo[2,3-d]pyrimidine-5-carboxamide]
25 | 67% | COCc1ccc(NC(=O)c2c(OCC3CCCO3)n(C3(C)CC3)c3ncnc(N)c23)cc1 (centres unmarked) [Example 135, 4-amino-N-(4-(methoxymethyl)phenyl)-7-(1-methylcyclopropyl)-6-((tetrahydrofuran-2-yl)methoxy)-7H-pyrrolo[2,3-d]pyrimidine-5-carboxamide]
26 | 78% | COCc1ccc(NC(=O)c2c(OCCN3CCCC3=O)n(C3(C)CC3)c3ncnc(N)c23)cc1 [Example 136, 4-amino-N-(4-(methoxymethyl)phenyl)-7-(1-methylcyclopropyl)-6-(2-(2-oxopyrrolidin-1-yl)ethoxy)-7H-pyrrolo[2,3-d]pyrimidine-5-carboxamide]
27 | 53% | COCc1ccc(NC(=O)c2c(OCC(C)(C)OC)n(C3(C)CC3)c3ncnc(N)c23)cc1 [Example 137, 4-amino-6-(2-methoxy-2-methylpropoxy)-N-(4-(methoxymethyl)phenyl)-7-(1-methylcyclopropyl)-7H-pyrrolo[2,3-d]pyrimidine-5-carboxamide]
28 | 52% | COCc1ccc(NC(=O)c2c(OCC3CCCC3)n(C3(C)CC3)c3ncnc(N)c23)cc1 [Example 140, 4-amino-6-(cyclopentylmethoxy)-N-(4-(methoxymethyl)phenyl)-7-(1-methylcyclopropyl)-7H-pyrrolo[2,3-d] pyrimidine-5-carboxamide]
29 | 68% | COCc1ccc(NC(=O)c2c(OCC3CCOCC3)n(C3(C)CC3)c3ncnc(N)c23)cc1 [Example 141, 4-amino-N-(4-(methoxymethyl)phenyl)-7-(1-methylcyclopropyl)-6-((tetrahydro-2H-pyran-4-yl)methoxy)-7H-pyrrolo[2,3-d]pyrimidine-5-carboxamide]

Source: US10807986B2, “Fused pyrimidine compound or salt thereof” (TAIHO PHARMACEUTICAL CO., LTD., priority 2016, dated 2020)
